The target in experiment [1] is T1, ERBB2-A775_G776insYVMA (ERBB2YVMA) (Homo sapiens, UniProt P04626, INS775YVMA).
T1 construct: purchased SignalChem E27-13BG
The experiment is described as follows: HotSpot radiometric kinase activity assay, ERBB2YVMA. The following applies: biochemical activity, 20 nM ERBB2YVMA, 10 μM 33P-ATP, 2 hours, read-out: HER2 - YVMA IC50. How it is done: (§1) The purpose of the wtERBB2, ERBB2-A775_G776insYVMA (ERBB2YVMA), wtEGFR biochemical assay was to evaluate the inhibition (% inhibition and IC50 values) of the small molecule inhibitors by using the “HotSpot” radiometric kinase activity assay. HotSpot assays monitor the production of kinase substrate by the radioactive gamma phosphate of adenosine triphosphate (33P-ATP) during biochemical reactions. HotSpot assays was performed in steps upon completion of the kinase reaction: deposition of a reaction mixture aliquot onto P81 ion exchange paper, extensive washing of the aforementioned P81 paper using phosphoric acid to remove unbound radiolabeled 33P-ATP from the P81 paper, and finally visualization and quantification of the dried P81 paper utilizing a phosphoimager. […] Typical reaction solutions (10 μL, final reaction volume) contained the following buffer conditions: 20 mM Hepes (pH 7.5), 10 mM MgCl2, 1 mM EGTA, 0.01% Brij35, 0.02 mg/mL BSA, 0.1 mM Na3VO4, 2 mM DTT, 1% DMSO. The assay was primed by preparing a fresh 0.2 mg/mL solution of pEY (Sigma Cat: P7244) substrate in the reaction buffer and supplementing that solution with […] of MnCl2 as substrate cofactor (Sigma Cat: M9522). The kinase of interest was then added to the solution at the appropriate concentration (30 nM wtERBB2 from, or 20 nM ERBB2YVMA, or 4 nM wtEGFR) and gently mixed prior to delivery of compound in 100% DMSO by acoustic dispensing (Beckman Echo550). Compound, Kinase, and substrate were allowed to incubate for 20 min at room temperature prior to the initiation of the reaction by addition of 33P-ATP (PerkinElmer Cat: NEG602, final conc 10 μM). […] IC50 determinations were made from a plot of kinase activity as a function of inhibitor concentration fit to the 4-parameter IC50 equation with the enzyme concentration held constant using GraphPad Prism (San Diego).

The target in another experiment is T2, wtEGFR (Homo sapiens, UniProt P00533).
T2 construct: purchased Invitrogen PR7295B
The experiment is described as follows: HotSpot radiometric kinase activity assay, wtEGFR. The following applies: biochemical activity, 4 nM wtEGFR, 10 μM 33P-ATP, 2 hours, read-out: EGFR WT IC50. How it is done:
as §1

The next experiment addresses BaF3_HER2WT cells (Homo sapiens, UniProt P04626). The experiment is described as follows: Cell growth inhibition assay (CellTiterGlo), BaF3_HER2WT. The format is cell-based. The conditions noted are these: 3-day treatment, CellTiterGlo, read-out: Cell growth inhibition activity, HER2 WT. (In general: In ATP-based viability assays light output follows the ATP content of the culture.)

Another experiment deals with BaF3_HER2YVMA cells (Homo sapiens, UniProt P04626, DUP772-775, cells depend on it). Nature of the experiment: Cell growth inhibition assay (CellTiterGlo), BaF3_HER2YVMA. Format: cell-based. The conditions noted are these: 3-day treatment, CellTiterGlo, read-out: Cell growth inhibition activity, HER2 - YVMA.
Another experiment has as its target BaF3_EGFRWT cells (Homo sapiens, UniProt P00533). Nature of the experiment: Cell growth inhibition assay (CellTiterGlo), BaF3_EGFRWT. The following applies: 3-day treatment, CellTiterGlo, read-out: Cell growth inhibition activity, EGFR WT. The format is cell-based.

Bounds are passed on as bounds.

BaF3_HER2YVMA cells, sequence (P04626 with tags, fused parts or gaps DUP772-775): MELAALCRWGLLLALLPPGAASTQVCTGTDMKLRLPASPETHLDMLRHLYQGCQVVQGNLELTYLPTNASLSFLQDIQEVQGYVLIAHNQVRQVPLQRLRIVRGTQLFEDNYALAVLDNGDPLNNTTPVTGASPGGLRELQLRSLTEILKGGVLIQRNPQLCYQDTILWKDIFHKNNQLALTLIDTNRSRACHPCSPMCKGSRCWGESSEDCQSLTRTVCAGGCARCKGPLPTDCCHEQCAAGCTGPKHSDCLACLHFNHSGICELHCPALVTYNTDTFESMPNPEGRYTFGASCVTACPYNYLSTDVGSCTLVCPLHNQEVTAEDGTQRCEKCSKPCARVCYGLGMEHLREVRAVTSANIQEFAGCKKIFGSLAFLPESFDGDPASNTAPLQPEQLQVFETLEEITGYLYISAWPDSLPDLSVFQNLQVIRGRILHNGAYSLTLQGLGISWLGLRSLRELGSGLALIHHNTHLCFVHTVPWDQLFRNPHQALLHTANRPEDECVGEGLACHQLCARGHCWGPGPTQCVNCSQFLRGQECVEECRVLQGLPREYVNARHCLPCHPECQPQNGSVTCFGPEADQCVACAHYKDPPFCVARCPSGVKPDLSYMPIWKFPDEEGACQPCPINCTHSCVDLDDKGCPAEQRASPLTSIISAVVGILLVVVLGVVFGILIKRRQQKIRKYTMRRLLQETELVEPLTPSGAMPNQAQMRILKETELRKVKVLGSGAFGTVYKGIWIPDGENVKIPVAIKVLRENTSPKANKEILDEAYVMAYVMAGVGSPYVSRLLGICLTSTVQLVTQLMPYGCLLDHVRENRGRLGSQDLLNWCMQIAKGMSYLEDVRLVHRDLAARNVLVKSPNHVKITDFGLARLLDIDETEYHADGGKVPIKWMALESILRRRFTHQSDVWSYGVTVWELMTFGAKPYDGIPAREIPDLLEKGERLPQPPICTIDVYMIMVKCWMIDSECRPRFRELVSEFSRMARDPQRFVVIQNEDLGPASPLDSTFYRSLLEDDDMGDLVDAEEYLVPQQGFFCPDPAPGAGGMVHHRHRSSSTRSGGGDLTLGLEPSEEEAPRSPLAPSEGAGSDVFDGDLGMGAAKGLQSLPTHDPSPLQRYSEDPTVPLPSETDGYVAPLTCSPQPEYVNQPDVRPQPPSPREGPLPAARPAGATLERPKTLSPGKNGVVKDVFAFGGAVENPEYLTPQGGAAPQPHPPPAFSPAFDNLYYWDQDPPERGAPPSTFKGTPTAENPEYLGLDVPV
T2 sequence (P00533 25-1210): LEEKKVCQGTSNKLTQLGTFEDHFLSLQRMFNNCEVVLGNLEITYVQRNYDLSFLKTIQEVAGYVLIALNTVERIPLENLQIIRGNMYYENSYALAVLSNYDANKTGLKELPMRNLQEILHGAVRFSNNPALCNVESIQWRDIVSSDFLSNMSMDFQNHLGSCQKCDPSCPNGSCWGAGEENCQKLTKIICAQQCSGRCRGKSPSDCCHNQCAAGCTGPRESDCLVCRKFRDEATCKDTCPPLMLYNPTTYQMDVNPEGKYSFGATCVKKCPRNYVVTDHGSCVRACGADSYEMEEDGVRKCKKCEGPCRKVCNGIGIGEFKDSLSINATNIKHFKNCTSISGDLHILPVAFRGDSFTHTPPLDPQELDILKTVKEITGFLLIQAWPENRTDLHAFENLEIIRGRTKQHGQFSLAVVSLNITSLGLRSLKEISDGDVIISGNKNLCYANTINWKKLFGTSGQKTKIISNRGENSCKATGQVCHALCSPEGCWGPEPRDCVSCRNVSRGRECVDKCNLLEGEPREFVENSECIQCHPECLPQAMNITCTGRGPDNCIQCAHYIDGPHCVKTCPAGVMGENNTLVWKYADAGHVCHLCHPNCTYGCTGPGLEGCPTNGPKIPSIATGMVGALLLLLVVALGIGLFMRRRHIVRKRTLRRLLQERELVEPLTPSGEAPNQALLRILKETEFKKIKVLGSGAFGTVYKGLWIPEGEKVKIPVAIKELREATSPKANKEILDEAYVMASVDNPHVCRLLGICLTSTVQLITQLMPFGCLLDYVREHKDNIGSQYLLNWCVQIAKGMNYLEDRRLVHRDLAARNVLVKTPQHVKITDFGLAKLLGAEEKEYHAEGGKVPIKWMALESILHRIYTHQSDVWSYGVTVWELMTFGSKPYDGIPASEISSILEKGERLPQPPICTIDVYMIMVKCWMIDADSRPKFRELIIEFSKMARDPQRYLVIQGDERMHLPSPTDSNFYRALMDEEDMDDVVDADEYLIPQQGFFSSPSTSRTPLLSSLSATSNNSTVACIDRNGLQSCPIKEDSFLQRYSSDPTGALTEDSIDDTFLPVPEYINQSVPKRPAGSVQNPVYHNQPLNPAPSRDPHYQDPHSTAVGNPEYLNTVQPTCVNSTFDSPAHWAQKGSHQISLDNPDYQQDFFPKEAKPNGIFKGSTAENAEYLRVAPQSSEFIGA
BaF3_HER2WT cells, sequence (P04626 whole entry, change not shown): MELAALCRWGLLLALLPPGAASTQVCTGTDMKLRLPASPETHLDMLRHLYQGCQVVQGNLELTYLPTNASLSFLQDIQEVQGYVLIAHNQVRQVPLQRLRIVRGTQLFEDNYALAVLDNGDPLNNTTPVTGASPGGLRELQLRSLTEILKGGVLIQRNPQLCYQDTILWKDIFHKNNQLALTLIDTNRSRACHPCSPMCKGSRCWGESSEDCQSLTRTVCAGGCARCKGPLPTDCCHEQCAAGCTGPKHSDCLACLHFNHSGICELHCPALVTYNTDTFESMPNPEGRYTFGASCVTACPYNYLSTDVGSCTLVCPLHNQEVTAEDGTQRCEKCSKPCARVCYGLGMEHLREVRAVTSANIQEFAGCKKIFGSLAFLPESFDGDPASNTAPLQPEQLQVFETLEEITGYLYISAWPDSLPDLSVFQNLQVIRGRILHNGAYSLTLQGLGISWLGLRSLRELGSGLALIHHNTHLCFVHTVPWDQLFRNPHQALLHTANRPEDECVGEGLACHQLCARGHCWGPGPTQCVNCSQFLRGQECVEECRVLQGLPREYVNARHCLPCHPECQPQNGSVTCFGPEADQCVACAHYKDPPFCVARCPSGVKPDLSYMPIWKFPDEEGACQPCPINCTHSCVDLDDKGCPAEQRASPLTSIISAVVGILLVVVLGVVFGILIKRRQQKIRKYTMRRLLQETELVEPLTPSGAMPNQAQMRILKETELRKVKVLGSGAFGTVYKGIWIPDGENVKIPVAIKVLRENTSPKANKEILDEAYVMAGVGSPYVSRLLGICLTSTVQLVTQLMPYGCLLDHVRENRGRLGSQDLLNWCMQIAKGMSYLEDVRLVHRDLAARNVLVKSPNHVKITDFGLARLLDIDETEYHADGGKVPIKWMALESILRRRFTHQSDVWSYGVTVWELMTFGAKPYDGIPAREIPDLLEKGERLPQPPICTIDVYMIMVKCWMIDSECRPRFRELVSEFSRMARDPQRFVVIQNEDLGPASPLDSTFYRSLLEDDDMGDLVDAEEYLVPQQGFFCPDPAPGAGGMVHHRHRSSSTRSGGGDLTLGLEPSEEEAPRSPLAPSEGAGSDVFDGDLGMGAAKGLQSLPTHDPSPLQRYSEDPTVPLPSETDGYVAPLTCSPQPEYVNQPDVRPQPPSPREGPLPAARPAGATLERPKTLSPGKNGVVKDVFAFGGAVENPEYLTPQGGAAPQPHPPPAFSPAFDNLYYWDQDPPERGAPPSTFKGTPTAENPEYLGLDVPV
T1 sequence (P04626 with tags, fused parts or gaps INS775YVMA limits assumed): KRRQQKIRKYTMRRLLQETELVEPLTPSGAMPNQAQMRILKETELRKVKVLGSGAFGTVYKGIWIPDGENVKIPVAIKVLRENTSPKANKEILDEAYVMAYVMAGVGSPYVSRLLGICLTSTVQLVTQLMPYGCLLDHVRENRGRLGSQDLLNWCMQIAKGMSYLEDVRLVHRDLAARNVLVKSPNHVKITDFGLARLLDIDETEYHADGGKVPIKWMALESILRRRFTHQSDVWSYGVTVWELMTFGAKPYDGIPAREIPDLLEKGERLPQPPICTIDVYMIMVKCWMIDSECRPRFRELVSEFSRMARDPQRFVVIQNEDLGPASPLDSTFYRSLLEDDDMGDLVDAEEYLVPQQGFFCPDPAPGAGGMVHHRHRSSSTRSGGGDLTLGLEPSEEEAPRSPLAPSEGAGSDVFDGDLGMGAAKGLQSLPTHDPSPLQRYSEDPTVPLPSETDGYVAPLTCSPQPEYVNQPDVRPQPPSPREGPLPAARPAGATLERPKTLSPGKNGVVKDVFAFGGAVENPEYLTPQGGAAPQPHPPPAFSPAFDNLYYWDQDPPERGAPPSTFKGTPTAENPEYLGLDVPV

One may read the IC50 as the midpoint of a concentration-inhibition curve. For the molecule `Cc1cc(Nc2ncnn3ccc(C4CN(C(=O)/C=C/CN5CCC5)C4)c23)ccc1Oc1ccn2ncnc2c1` [Example 102, (E)-1-(3-(4-((4-([1,2,4]triazolo[1,5-a]pyridin-7-yloxy)-3-methylphenyl)amino)pyrrolo[2,1-f][1,2,4]triazin-5-yl)azetidin-1-yl)-4-(azetidin-1-yl)but-2-en-1-one], the concentration for half-maximal inhibition (IC50) in experiment [1] was under 200 nM; on wtEGFR, 1500 to 5000 nM. The GI50 at BaF3_HER2WT cells fell in the range of 500 to 1500 nM; at BaF3_HER2YVMA cells, 1500 to 5000 nM; at BaF3_EGFRWT cells, 1500 to 5000 nM.
With `C=CC(=O)NCCn1cc(-c2ccn3ncnc(Nc4ccc(Oc5ccn6ncnc6c5)c(C)c4)c23)cn1` [Example 13, N-(2-(4-(4-((4-([1,2,4]triazolo[1,5-a]pyridin-7-yloxy)-3-methylphenyl)amino)pyrrolo[2,1-f][1,2,4]triazin-5-yl)-1H-pyrazol-1-yl)ethyl)acrylamide], the results for the IC50 (in experiment [1]; on wtEGFR) were under 200 nM and 1500 to 5000 nM, respectively. Besides, the GI50 is under 200 nM at BaF3_HER2WT cells, 200 to 500 nM at BaF3_HER2YVMA cells and 1500 to 5000 nM at BaF3_EGFRWT cells.
Take `Cc1cc(Nc2ncnn3ccc(C4CN(C(=O)/C=C/CN5CC(F)(F)C5)C4)c23)ccc1Oc1ccn2ncnc2c1` [Example 91, (E)-1-(3-(4-((4-([1,2,4]triazolo[1,5-a]pyridin-7-yloxy)-3-methylphenyl)amino)pyrrolo[2,1-f][1,2,4]-triazin-5-yl)azetidin-1-yl)-4-(3,3-difluoroazetidin-1-yl)but-2-en-1-one]: the results for the IC50 (in experiment [1]; on wtEGFR) were under 200 nM and 500 to 1500 nM, respectively. Further, the GI50 is under 200 nM at BaF3_HER2WT cells, 500 to 1500 nM at BaF3_HER2YVMA cells and 1500 to 5000 nM on BaF3_EGFRWT cells.
With `C=CC(=O)NC1CN(c2ccn3ncnc(Nc4ccc(Oc5ccn6ncnc6c5)c(C)c4)c23)C1` [Example 14, N-(1-(4-((4-([1,2,4]triazolo[1,5-a]pyridin-7-yloxy)-3-methylphenyl)amino)pyrrolo[2,1-f][1,2,4]triazin-5-yl)azetidin-3-yl)acrylamide], the results for the IC50 (in experiment [1]; at wtEGFR) were under 200 nM and 200 to 500 nM, respectively. Besides, the GI50 on BaF3_HER2WT cells is under 200 nM; on BaF3_HER2YVMA cells it was under 200 nM; on BaF3_EGFRWT cells, 1500 to 5000 nM.
Turning to `Cc1cc(Nc2ncnn3ccc(N4CCN(C(=O)/C=C/CN(C)C)CC4)c23)ccc1Oc1ccn2ncnc2c1` [Example 22, (E)-1-(4-(4-((4-([1,2,4]triazolo[1,5-a]pyridin-7-yloxy)-3-methylphenyl)amino)pyrrolo[2,1-f][1,2,4]triazin-5-yl)piperazin-1-yl)-4-(dimethylamino)but-2-en-1-one], the IC50 was under 200 nM in experiment [1] and 500 to 1500 nM at wtEGFR. Besides, the GI50 at BaF3_HER2WT cells is under 200 nM; at BaF3_HER2YVMA cells, under 200 nM; at BaF3_EGFRWT cells it was 1500 to 5000 nM.
For `C=C(F)C(=O)NC1CN(c2ccn3ncnc(Nc4ccc(Oc5ccn6ncnc6c5)c(C)c4)c23)C1` [Example 18, N-(1-(4-((4-([1,2,4]triazolo[1,5-a]pyridin-7-yloxy)-3-methylphenyl)amino)pyrrolo[2,1-f][1,2,4]triazin-5-yl)azetidin-3-yl)-2-fluoroacrylamide], the half-maximal inhibitory concentration (IC50) in experiment [1] was under 200 nM; on wtEGFR it was 1500 to 5000 nM. For the same molecule, the values for the GI50 at BaF3_HER2WT cells, on BaF3_HER2YVMA cells and at BaF3_EGFRWT cells were 200 to 500 nM, 500 to 1500 nM and 1500 to 5000 nM, respectively.
Regarding `Cc1cc(Nc2ncnn3ccc(C4CCCN(C(=O)/C=C/CN(C)C)C4)c23)ccc1Oc1ccn2ncnc2c1` (single isomer, unassigned) [Example 107], at wtEGFR, the 50% inhibitory concentration (IC50) is 500 to 1500 nM.
For the molecule `Cc1cc(Nc2ncnn3ccc(C4CCN(C(=O)/C=C/CN(C)C)C4)c23)ccc1Oc1ccn2ncnc2c1` (single isomer, unassigned) [Example 100], the IC50 on wtEGFR is 1500 to 5000 nM.
Consider `C=CC(=O)N1CC(n2cc(-c3ccn4ncnc(Nc5ccc(Oc6ccn7ncnc7c6)c(C)c5)c34)cn2)C1` [Example 2, 1-(3-(4-(4-((4-([1,2,4]triazolo[1,5-a]pyridin-7-yloxy)-3-methylphenyl)amino)pyrrolo[2,1-f][1,2,4]triazin-5-yl)-1H-pyrazol-1-yl)azetidin-1-yl)prop-2-en-1-one], for which the concentration for half-maximal inhibition (IC50) in experiment [1] was under 200 nM. Besides, the results for the GI50 on BaF3_HER2WT cells, on BaF3_HER2YVMA cells and on BaF3_EGFRWT cells were under 200 nM, under 200 nM and 1500 to 5000 nM, respectively.
With `C=CC(=O)N1CCN(c2ccn3ncnc(Nc4ccc(Oc5ccn6ncnc6c5)c(C)c4)c23)CC1` [Example 6, 1-(4-(4-((4-([1,2,4]triazolo[1,5-a]pyridin-7-yloxy)-3-methylphenyl)amino)pyrrolo[2,1-f][1,2,4]triazin-5-yl)piperazin-1-yl)prop-2-en-1-one], the half-maximal inhibitory concentration (IC50) in experiment [1] was under 200 nM. In addition, the values for the GI50 at BaF3_HER2WT cells, on BaF3_HER2YVMA cells and at BaF3_EGFRWT cells were under 200 nM, under 200 nM and 500 to 1500 nM, respectively.
Turning to `Cc1cc(Nc2ncnn3ccc(C4CCCN(C(=O)/C=C/CN(C)C)CC4)c23)ccc1Oc1ccn2ncnc2c1` (single isomer, unassigned) [Example 110], the IC50 on wtEGFR lay within 200 to 500 nM.
In the case of `C=CC(=O)N1CCCC(c2ccn3ncnc(Nc4ccc(Oc5ccn6ncnc6c5)c(C)c4)c23)C1` (stereo not drawn) [Example 12, 1-(3-(4-((4-([1,2,4]triazolo[1,5-a]pyridin-7-yloxy)-3-methylphenyl)amino)pyrrolo[2,1-f][1,2,4]triazin-5-yl)piperidin-1-yl)prop-2-en-1-one], the IC50 in experiment [1] is under 200 nM. Also, the results for the GI50 at BaF3_HER2WT cells, at BaF3_HER2YVMA cells and on BaF3_EGFRWT cells were under 200 nM, under 200 nM and 1500 to 5000 nM, respectively.
As to `Cc1cc(Nc2ncnn3ccc(C4CCCN(C(=O)/C=C/CN(C)C)C4)c23)ccc1Oc1ccn2ncnc2c1` (single isomer, unassigned) [Example 108], at wtEGFR, the IC50 is 1500 to 5000 nM.
As to `Cc1cc(Nc2ncnn3ccc(C4CN(C(=O)/C=C/CN(C)C)C4)c23)ccc1Oc1ccc2c(c1)ncn2C` [Example 101, (E)-4-(dimethylamino)-1-(3-(4-((3-methyl-4-((1-methyl-1H-benzo[d]imidazol-5-yl)oxy)phenyl)amino)pyrrolo[2,1-f][1,2,4]triazin-5-yl)azetidin-1-yl)but-2-en-1-one], the IC50 in experiment [1] was under 200 nM. Moreover, the values for the GI50 at BaF3_HER2WT cells, at BaF3_HER2YVMA cells and on BaF3_EGFRWT cells were under 200 nM, under 200 nM and 1500 to 5000 nM, respectively.
For the molecule `C=CC(=O)N1CCC(c2ccn3ncnc(Nc4ccc(Oc5ccn6ncnc6c5)c(C)c4)c23)CC1` [Example 7, 1-(4-(4-((4-([1,2,4]triazolo[1,5-a]pyridin-7-yloxy)-3-methylphenyl)amino)pyrrolo[2,1-f][1,2,4]triazin-5-yl)piperidin-1-yl)prop-2-en-1-one], in experiment [1], the IC50 was under 200 nM. Also, the figures for the GI50 at BaF3_HER2WT cells, on BaF3_HER2YVMA cells and at BaF3_EGFRWT cells were under 200 nM, under 200 nM and 200 to 500 nM, respectively.
Take `Cc1cc(Nc2ncnn3ccc(C4CN(C(=O)/C=C/CN5CCCCC5)C4)c23)ccc1Oc1ccn2ncnc2c1` [Example 94, (E)-1-(3-(4-((4-([1,2,4]triazolo[1,5-a]pyridin-7-yloxy)-3-methylphenyl)amino)pyrrolo[2,1-f][1,2,4]triazin-5-yl)azetidin-1-yl)-4-(piperidin-1-yl)but-2-en-1-one]: the half-maximal inhibitory concentration (IC50) in experiment [1] was under 200 nM. Moreover, the GI50 was under 200 nM on BaF3_HER2WT cells, under 200 nM on BaF3_HER2YVMA cells and 1500 to 5000 nM at BaF3_EGFRWT cells.
As to `C=CC(=O)N1CCCN(c2ccn3ncnc(Nc4ccc(Oc5ccn6ncnc6c5)c(C)c4)c23)CC1` [Example 8, 1-(4-(4-((4-([1,2,4]triazolo[1,5-a]pyridin-7-yloxy)-3-methylphenyl)amino)pyrrolo[2,1-f][1,2,4]triazin-5-yl)-1,4-diazepan-1-yl)prop-2-en-1-one], the half-inhibitory concentration (IC50) in experiment [1] is under 200 nM. The results for the GI50 at BaF3_HER2WT cells, on BaF3_HER2YVMA cells and on BaF3_EGFRWT cells were under 200 nM, under 200 nM and 500 to 1500 nM, respectively.
Regarding `C=CC(=O)N1CCC(c2ccn3ncnc(Nc4ccc(Oc5ccc6c(c5)ncn6C)c(C)c4)c23)CC1` [Example 113, 1-(4-(4-((3-methyl-4-((1-methyl-1H-benzo[d]imidazol-5-yl)oxy)phenyl)amino)pyrrolo[2,1-f][1,2,4]triazin-5-yl)piperidin-1-yl)prop-2-en-1-one], the IC50 in experiment [1] is under 200 nM. In addition, the GI50 on BaF3_HER2WT cells is under 200 nM; at BaF3_HER2YVMA cells it was under 200 nM; at BaF3_EGFRWT cells, 500 to 1500 nM.

(Values after patent US20240132521A1, “COMPOUNDS AND METHODS FOR MODULATING HER2” (Iambic Therapeutics, Inc., priority 2022, published 2024).)
